Legend:
crabgrass = experiment: Test B pre/postemergence crabgrass; assay type: in vivo, Digitaria sanguinalis; details: for Plant response rating, Crabgrass: Postemergence; for Crabgrass plant response rating: scale of 0 to 10 where 0 is no effect and 10 is complete control
How it was run: (§1)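 Response is a visual 0-to-10 score relative to untreated plants, where 0 means no effect and 10 means complete control, taken twelve to sixteen days after application. Treatments went onto soil at planting and onto foliage of 1- to 4-leaf plants, using a surfactant-containing non-phytotoxic solvent.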

rape = experiment: Test B pre/postemergence rape; assay type: in vivo, Brassica napus; details: for Plant response rating, Rape: Postemergence; for Rape plant response rating: scale of 0 to 10 where 0 is no effect and 10 is complete control
How it was run: as §1

sugar beet = experiment: Test B pre/postemergence sugar beet; assay type: in vivo, Beta vulgaris; details: for Plant response rating, Sugarbeets: Postemergence; for Sugarbeets plant response rating: scale of 0 to 10 where 0 is no effect and 10 is complete control
How it was run: as §1

wild oat = experiment: Test B pre/postemergence wild oat; assay type: in vivo, Avena fatua; details: for Plant response rating, Wild oats: Postemergence; for Wild oats plant response rating: scale of 0 to 10 where 0 is no effect and 10 is complete control
How it was run: as §1

bamyardgrass = experiment: Test B flood test barnyardgrass; assay type: in vivo, Echinochloa crus-galli; details: Pre-emergence
How it was run: (§2)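 Flood test on plants grown to the 2-leaf stage; treated plants kept in greenhouse twelve to sixteen days, then visually rated against controls on a 0 (no effect) to 10 (complete control) scale.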

pigweed = experiment: Test B pre/postemergence pigweed; assay type: in vivo, Amaranthus retroflexus; details: for Plant response rating, Redroot pigweed: Postemergence; for Redroot pigweed plant response rating: scale of 0 to 10 where 0 is no effect and 10 is complete control
How it was run: as §1

corn = experiment: Test B pre/postemergence corn; assay type: in vivo, Zea mays; details: for Plant response rating, Corn: Postemergence; for Corn plant response rating: scale of 0 to 10 where 0 is no effect and 10 is complete control
How it was run: as §1

bedstraw = experiment: Test B pre/postemergence bedstraw; assay type: in vivo, Galium aparine; details: for Plant response rating, Bedstraw: Postemergence
How it was run: as §1

surinam grass = experiment: Test B pre/postemergence surinam grass; assay type: in vivo, Brachiaria decumbens; details: for Plant response rating, B. signalgrass: Postemergence
How it was run: as §1

morningglory = experiment: Test B pre/postemergence morningglory; assay type: in vivo, Ipomoea hederacea; details: for Plant response rating, Morningglory: Postemergence; for Morningglory plant response rating: scale of 0 to 10 where 0 is no effect and 10 is complete control
How it was run: as §1

cocklebur = experiment: Test B pre/postemergence cocklebur; assay type: in vivo, Xanthium strumarium; details: for Plant response rating, Cocklebur: Postemergence; for Cocklebur plant response rating: scale of 0 to 10 where 0 is no effect and 10 is complete control
How it was run: as §1

soybean = experiment: Test B pre/postemergence soybean; assay type: in vivo, Glycine max; details: for Plant response rating, Soybean: Postemergence; for Soybean plant response rating: scale of 0 to 10 where 0 is no effect and 10 is complete control
How it was run: as §1

giant foxtail = experiment: Test B pre/postemergence giant foxtail; assay type: in vivo, Setaria faberii; details: for Plant response rating, Giant foxtail: Postemergence; for Giant foxtail plant response rating: Preemergence, scale of 0 to 10 where 0 is no effect and 10 is complete control
How it was run: as §1

duck salad = experiment: Test B flood test duck salad; assay type: in vivo, Heteranthera limosa; details: Pre-emergence
How it was run: as §2

smallflower flatsedge = experiment: Test B flood test smallflower flatsedge; assay type: in vivo, Cyperus difformis; details: Pre-emergence
How it was run: as §2

purple nutsedge = experiment: Test B pre/postemergence purple nutsedge; assay type: in vivo, Cyperus rotundus; details: for Plant response rating, Nutsedge: Postemergence; for Nutsedge plant response rating: scale of 0 to 10 where 0 is no effect and 10 is complete control
How it was run: as §1

rice = experiment: Test B flood test rice; assay type: in vivo, Oryza sativa; details: Pre-emergence
How it was run: as §2

wheat = experiment: Test B pre/postemergence wheat; assay type: in vivo, Triticum aestivum; details: for Plant response rating, Wheat: Postemergence; for Wheat plant response rating: scale of 0 to 10 where 0 is no effect and 10 is complete control
How it was run: as §1

velvetleaf = experiment: Test B pre/postemergence velvetleaf; assay type: in vivo, Abutilon theophrasti; details: for Plant response rating, Velvetleaf: Postemergence; for Velvetleaf plant response rating: scale of 0 to 10 where 0 is no effect and 10 is complete control
How it was run: as §1

blackgrass = experiment: Test B pre/postemergence blackgrass; assay type: in vivo, Alopecurus myosuroides; details: for Plant response rating, Blackgrass: Postemergence
How it was run: as §1

[1] = Rate 125 g/ha, scale 0 to 10, 0 is no effect, 10 is complete control
[2] = Rate 500 g/ha, scale 0 to 10, 0 no effect, 10 complete control
[3] = Rate 1000 g/ha, scale 0 to 10 (0 no effect, 10 complete control)
[4] = Rate 125 g/ha, flood test species, scale 0 to 10 where 0 is no effect and 10 is complete control
[5] = Rate 250 g/ha, flood-test species, scale 0 to 10, 0 is no effect, 10 is complete control
[6] = Rate 500 g/ha, flood test species, scale 0 to 10 (0 no effect, 10 complete control)
[7] = Preemergence, Rate 500 g/ha, scale of 0 to 10 where 0 is no effect and 10 is complete control
[8] = Preemergence, Rate 250 g/ha, scale of 0 to 10 where 0 is no effect and 10 is complete control
[9] = Rate 250 g/ha, scale of 0 to 10 where 0 is no effect and 10 is complete control

CCOC(=O)C(C)N(C(=O)n1oc(=O)n(-c2c(C)cccc2OC)c1=O)c1ccc(F)cc1 (centres unmarked) [Compound 331]
0: Plant response rating, Crabgrass (crabgrass; [1]) | Crabgrass plant response rating (0 to 10 scale) (crabgrass; Preemergence, Rate 125 g/ha) | Crabgrass plant response rating (crabgrass; Preemergence, Rate 250 g/ha) | Crabgrass plant response rating (crabgrass; Preemergence, Rate 500 g/ha) | Plant response rating, Crabgrass (crabgrass; [2]) | Plant response rating, Rape (rape; [1]) | Rape plant response rating (0 to 10 scale) (rape; Preemergence, Rate 125 g/ha) | Rape plant response rating (rape; Preemergence, Rate 250 g/ha) | Rape plant response rating (rape; Preemergence, Rate 500 g/ha) | Plant response rating, Rape (rape; [2]) | Plant response rating, Sugarbeets (sugar beet; [1]) | Sugarbeets plant response rating (0 to 10 scale) (sugar beet; Preemergence, Rate 125 g/ha) | Sugarbeets plant response rating (sugar beet; Preemergence, Rate 250 g/ha) | Sugarbeets plant response rating (sugar beet; Preemergence, Rate 500 g/ha) | Plant response rating, Sugarbeets (sugar beet; [2]) | Plant response rating, Wild oats (wild oat; [1]) | Wild oats plant response rating (0 to 10 scale) (wild oat; Preemergence, Rate 125 g/ha) | Wild oats plant response rating (wild oat; Preemergence, Rate 250 g/ha) | Wild oats plant response rating (wild oat; Preemergence, Rate 500 g/ha) | Plant response rating, Wild oats (wild oat; [2]) | Barnyardgrass plant response rating (bamyardgrass; [3]) | Barnyardgrass plant response rating (bamyardgrass; [4]) | Barnyardgrass plant response rating (bamyardgrass; [5]) | Barnyardgrass plant response rating (bamyardgrass; [6]) | Plant response rating, Redroot pigweed (pigweed; [1]) | Redroot pigweed plant response rating (0 to 10 scale) (pigweed; Preemergence, Rate 125 g/ha) | Redroot pigweed plant response rating (pigweed; Preemergence, Rate 250 g/ha) | Redroot pigweed plant response rating (pigweed; Preemergence, Rate 500 g/ha) | Plant response rating, Redroot pigweed (pigweed; [2]) | Plant response rating, Corn (corn; [1]) | Corn plant response rating (0 to 10 scale) (corn; Preemergence, Rate 125 g/ha) | Corn plant response rating (corn; Preemergence, Rate 250 g/ha) | Corn plant response rating (corn; Preemergence, Rate 500 g/ha) | Plant response rating, Corn (corn; [2]) | Plant response rating, Bedstraw (bedstraw; [1]) | Bedstraw plant response rating (bedstraw; [7]) | Plant response rating, Bedstraw (bedstraw; [2]) | Plant response rating, B. signalgrass (surinam grass; [1]) | B. signalgrass plant response rating (0 to 10 scale, 0 is no effect, 10 is complete control) (surinam grass; Preemergence, Rate 125 g/ha) | B. signalgrass plant response rating (surinam grass; [8]) | B. signalgrass plant response rating (surinam grass; [7]) | Plant response rating, B. signalgrass (surinam grass; [9]) | Plant response rating, B. signalgrass (surinam grass; [2]) | Plant response rating, Morningglory (morningglory; [1]) | Morningglory plant response rating (0 to 10 scale) (morningglory; Preemergence, Rate 125 g/ha) | Morningglory plant response rating (morningglory; Preemergence, Rate 250 g/ha) | Morningglory plant response rating (morningglory; Preemergence, Rate 500 g/ha) | Plant response rating, Morningglory (morningglory; [2]) | Plant response rating, Cocklebur (cocklebur; [1]) | Cocklebur plant response rating (0 to 10 scale) (cocklebur; Preemergence, Rate 125 g/ha) | Cocklebur plant response rating (cocklebur; Preemergence, Rate 250 g/ha) | Cocklebur plant response rating (cocklebur; Preemergence, Rate 500 g/ha) | Plant response rating, Cocklebur (cocklebur; [2]) | Plant response rating, Soybean (soybean; [1]) | Soybean plant response rating (0 to 10 scale) (soybean; Preemergence, Rate 125 g/ha) | Soybean plant response rating (soybean; Preemergence, Rate 250 g/ha) | Soybean plant response rating (soybean; Preemergence, Rate 500 g/ha) | Plant response rating, Soybean (soybean; [2]) | Plant response rating, Giant foxtail (giant foxtail; [1]) | Giant foxtail plant response rating (giant foxtail; Rate 250 g/ha) | Giant foxtail plant response rating (giant foxtail; Rate 500 g/ha) | Plant response rating, Giant foxtail (giant foxtail; [2]) | Ducksalad plant response rating (duck salad; [3]) | Ducksalad plant response rating (duck salad; [4]) | Ducksalad plant response rating (duck salad; [5]) | Ducksalad plant response rating (duck salad; [6]) | S. Flatsedge plant response rating (smallflower flatsedge; [3]) | S. Flatsedge plant response rating (smallflower flatsedge; [4]) | S. Flatsedge plant response rating (smallflower flatsedge; [5]) | S. Flatsedge plant response rating (smallflower flatsedge; [6]) | Plant response rating, Nutsedge (purple nutsedge; [1]) | Nutsedge plant response rating (0 to 10 scale) (purple nutsedge; Preemergence, Rate 125 g/ha) | Nutsedge plant response rating (purple nutsedge; Preemergence, Rate 250 g/ha) | Nutsedge plant response rating (purple nutsedge; Preemergence, Rate 500 g/ha) | Plant response rating, Nutsedge (purple nutsedge; [2]) | Rice plant response rating (rice; [3]) | Rice plant response rating (rice; [4]) | Rice plant response rating (rice; [5]) | Rice plant response rating (rice; [6]) | Plant response rating, Wheat (wheat; [1]) | Wheat plant response rating (0 to 10 scale) (wheat; Preemergence, Rate 125 g/ha) | Wheat plant response rating (wheat; Preemergence, Rate 250 g/ha) | Wheat plant response rating (wheat; Preemergence, Rate 500 g/ha) | Plant response rating, Wheat (wheat; [2]) | Plant response rating, Velvetleaf (velvetleaf; [1]) | Velvetleaf plant response rating (0 to 10 scale) (velvetleaf; Preemergence, Rate 125 g/ha) | Velvetleaf plant response rating (velvetleaf; Preemergence, Rate 250 g/ha) | Velvetleaf plant response rating (velvetleaf; Preemergence, Rate 500 g/ha) | Plant response rating, Velvetleaf (velvetleaf; [2]) | Plant response rating, Blackgrass (blackgrass; [1]) | Blackgrass plant response rating (0 to 10 scale) (blackgrass; Preemergence, Rate 125 g/ha) | Blackgrass plant response rating (blackgrass; [8]) | Blackgrass plant response rating (blackgrass; [7]) | Plant response rating, Blackgrass (blackgrass; [9]) | Plant response rating, Blackgrass (blackgrass; [2])

From patent US6737383B1, “Herbicidal oxadiazolidines” (priority 1999, dated 2004)
